How the values were obtained:
[1] = system: U-insertion gRNA/pre-mRNA hybrid RNA (pre-cleaved) (RNA, duplex, 3'-end amino modification in two of the oligoribonucleotides used (which ones stated only in S1 Table)) GGAAGUAUGAGACGUAGG/AUUGGAGUUAUAG/CUAUAACUCCGAUAAACCUACGUCUCAUACUUCC; experiment: UV melting, 260 nm; conditions: Na+ (5 mM Na cacodylate; NaCl not stated); pH 6.8; 1 μM RNA; neomycin 1.3 μM or 13 μM; two helices; 11–13 over both RNAs
[2] = system: U-deletion gRNA/pre-mRNA hybrid RNA (pre-cleaved) (RNA, duplex, 3'-end amino modification in two of the oligoribonucleotides used (which ones stated only in S1 Table)) GGAAAGGGAAAGUUGUGAUUUU/GCGAGUUAUAGAAUA/GGUUCUAUAACUCGCUCACAACUUUCCCUUUCC; experiment: UV melting, 260 nm; conditions: Na+ (5 mM Na cacodylate; NaCl not stated); pH 6.8; 1 μM RNA; neomycin 1.3 μM or 13 μM; two helices; 11–13 over both RNAs
[3] = system: U-insertion gRNA/pre-mRNA hybrid RNA (pre-cleaved) (RNA, duplex, 3'-end amino modification in two of the oligoribonucleotides used (which ones stated only in S1 Table)) GGAAGUAUGAGACGUAGG/AUUGGAGUUAUAG/CUAUAACUCCGAUAAACCUACGUCUCAUACUUCC; experiment: isothermal titration calorimetry; conditions: 30 mM KCl, 10 mM Mg(OAc)2; 20 mM HEPES/KOH pH 7.5, 0.5 mM DTT, 27°C; 2 μM RNA; macroscopic, 3 sites
[4] = system: U-deletion gRNA/pre-mRNA hybrid RNA (pre-cleaved) (RNA, duplex, 3'-end amino modification in two of the oligoribonucleotides used (which ones stated only in S1 Table)) GGAAAGGGAAAGUUGUGAUUUU/GCGAGUUAUAGAAUA/GGUUCUAUAACUCGCUCACAACUUUCCCUUUCC; experiment: isothermal titration calorimetry; conditions: 30 mM KCl, 10 mM Mg(OAc)2; 20 mM HEPES/KOH pH 7.5, 0.5 mM DTT, 27°C; 2 μM RNA; macroscopic, 3 sites
[5] = system: U-insertion gRNA/pre-mRNA hybrid RNA (pre-cleaved) (RNA, duplex, 3'-end amino modification in two of the oligoribonucleotides used (which ones stated only in S1 Table)) GGAAGUAUGAGACGUAGG/AUUGGAGUUAUAG/CUAUAACUCCGAUAAACCUACGUCUCAUACUUCC; experiment: circular dichroism titration, 273 nm; conditions: Na+ (65 mM NaCl, 10 mM Na cacodylate); pH 6.8, 27°C; 12 μM RNA; neomycin up to 0.6 mM; A-form retained
[6] = system: U-deletion gRNA/pre-mRNA hybrid RNA (pre-cleaved) (RNA, duplex, 3'-end amino modification in two of the oligoribonucleotides used (which ones stated only in S1 Table)) GGAAAGGGAAAGUUGUGAUUUU/GCGAGUUAUAGAAUA/GGUUCUAUAACUCGCUCACAACUUUCCCUUUCC; experiment: circular dichroism titration, 273 nm; conditions: Na+ (65 mM NaCl, 10 mM Na cacodylate); pH 6.8, 27°C; 12 μM RNA; neomycin up to 0.6 mM; A-form retained

binding [1]: yes | binding [2]: yes | Kd [3]: 1100 nM | Kd [4]: 1000 nM | binding [5]: yes | binding [6]: yes
Compound: NC[C@@H]1O[C@H](O[C@H]2[C@@H](O)[C@H](O[C@@H]3[C@@H](O)[C@H](N)C[C@H](N)[C@H]3O[C@H]3O[C@H](CN)[C@@H](O)[C@H](O)[C@H]3N)O[C@@H]2CO)[C@H](N)[C@@H](O)[C@@H]1O
